Data: patent US11021457B2, “Class of isoindolone-imide ring-1,3-dione-2-ene compounds, composition and use thereof” (WIGEN BIOMEDICINE TECHNOLOGY (SHANGHAI) CO., LTD., priority 2017, dated 2021)
Like-named read-outs stand apart in the source and are kept apart here.

Columns and labels:
[1] = target: LC3B (Homo sapiens (Human), UniProt Q9GZQ8); test: Fluorescence polarization experiment targeting LC3B (GST-LC3B with FITC-labeled peptide)
[2] = system: SU-DHL6; test: Inhibition of tumor cell proliferation, CellTiter-Glo, SU-DHL6; assay type: cell-based; conditions: compound concentration 50 μM, 72 hours
In short: (§1)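 Cells seeded at 2000-10000 cells/well in complete medium at 37° C., 5% CO2; suspension lines dosed immediately, adherent lines after attachment. Viability by CellTiter-Glo luminescence at 72 h; survival % from blank-corrected RLU vs control. Scored at 50 μM: + (60-<90%), ++ (>30-60%), +++ (≤30%).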

[3] = system: A549; test: Inhibition of tumor cell proliferation, CellTiter-Glo, A549; assay type: cell-based; conditions: compound concentration 50 μM, 72 hours
In short: as §1

[4] = system: K562; test: Inhibition of tumor cell proliferation, CellTiter-Glo, K562; assay type: cell-based; conditions: compound concentration 50 μM, 72 hours
In short: as §1

[5] = system: RPMI-8226; test: Inhibition of tumor cell proliferation, CellTiter-Glo, RPMI-8226; assay type: cell-based; conditions: compound concentration 50 μM, 72 hours
In short: as §1

[6] = system: MDA-MB-453; test: Inhibition of tumor cell proliferation, CellTiter-Glo, MDA-MB-453; assay type: cell-based; conditions: compound concentration 50 μM, 72 hours
In short: as §1

[7] = system: BxPC-3; test: Inhibition of tumor cell proliferation, CellTiter-Glo, BxPC-3; assay type: cell-based; conditions: compound concentration 50 μM, 72 hours
In short: as §1

[8] = GST-LC3B 180 nM, FITC-labeled peptide 18 nM, 25° C.

SMILES | IC50 [1, 8] | Inhibitory activity against proliferation (cell survival rate) SU-DHL6 [2] | Inhibitory activity against proliferation (cell survival rate) A549 [3] | Inhibitory activity against proliferation (cell survival rate) K562 [4] | Inhibitory activity against proliferation (cell survival rate) RPMI-8226 [5] | Inhibitory activity against proliferation (cell survival rate) MDA-MB-453 [6] | Inhibitory activity against proliferation (cell survival rate) BxPC-3 [7] | IC50 [1] | cell survival rate (% of control) at 50 µM ([2]; Homo sapiens, SU-DHL-6, read-out: Inhibitory activity against proliferation (cell survival rate) SU-DHL6) | cell survival rate (%) at 50 µM ([4]; Homo sapiens, K562, read-out: Inhibitory activity against proliferation (cell survival rate) K562) | cell survival rate (% of control) at 50 µM ([5]; Homo sapiens, RPMI-8226, read-out: Inhibitory activity against proliferation (cell survival rate) RPMI-8226) | cell survival rate (%) at 50 µM ([6]; Homo sapiens, MDA-MB-453, read-out: Inhibitory activity against proliferation (cell survival rate) MDA-MB-453) | cell survival rate (%) at 50 µM ([7]; Homo sapiens, BXPC-3, read-out: Inhibitory activity against proliferation (cell survival rate) BxPC-3)
O=C1CCC(N2Cc3c(NC=C4C(=O)CC(c5cccc6[nH]ccc56)CC4=O)cccc3C2=O)C(=O)N1 (stereo not shown) [Compound 3] | < 3 µM | +++ (survival rate (%)≤30) | + (60≤survival rate (%)<90) | + (60≤survival rate (%)<90) | + (60≤survival rate (%)<90) | ++ (30<survival rate (%)≤60) | + (60≤survival rate (%)<90) | – | – | – | – | – | –
O=C1CCC(N2C(=O)c3cccc(NC=C4C(=O)CC(c5cccc6[nH]ccc56)CC4=O)c3C2=O)C(=O)N1 (stereo not shown) [Compound 5] | < 3 µM | + (60≤survival rate (%)<90) | +++ (survival rate (%)≤30) | + (60≤survival rate (%)<90) | + (60≤survival rate (%)<90) | +++ (survival rate (%)≤30) | + (60≤survival rate (%)<90) | – | – | – | – | – | –
O=C1CCC(N2C(=O)c3cccc(NC=C4C(=O)CC(c5cccc(Cl)c5Cl)CC4=O)c3C2=O)C(=O)N1 (stereo not shown) [Compound 6] | < 3 µM | + (60≤survival rate (%)<90) | + (60≤survival rate (%)<90) | + (60≤survival rate (%)<90) | + (60≤survival rate (%)<90) | + (60≤survival rate (%)<90) | + (60≤survival rate (%)<90) | – | – | – | – | – | –
O=C1CCC(N2Cc3c(NC=C4C(=O)CC(c5cccc(Cl)c5Cl)CC4=O)cccc3C2=O)C(=O)N1 (stereo not shown) [Compound 7] | < 3 µM | +++ (survival rate (%)≤30) | ++ (30<survival rate (%)≤60) | ++ (30<survival rate (%)≤60) | ++ (30<survival rate (%)≤60) | ++ (30<survival rate (%)≤60) | + (60≤survival rate (%)<90) | – | – | – | – | – | –
O=C1CCC(N2Cc3c(NC=C4C(=O)CC(c5c(Br)ccc(F)c5Cl)CC4=O)cccc3C2=O)C(=O)N1 (stereo not shown) [Compound 11] | < 3 µM | + (60≤survival rate (%)<90) | + (60≤survival rate (%)<90) | +++ (survival rate (%)≤30) | + (60≤survival rate (%)<90) | + (60≤survival rate (%)<90) | + (60≤survival rate (%)<90) | – | – | – | – | – | –
O=C1CCC(N2C(=O)c3cccc(NC=C4C(=O)CC(c5cccc6[nH]cc(Cl)c56)CC4=O)c3C2=O)C(=O)N1 (stereo not shown) [Compound 12] | < 3 µM | + (60≤survival rate (%)<90) | + (60≤survival rate (%)<90) | + (60≤survival rate (%)<90) | + (60≤survival rate (%)<90) | + (60≤survival rate (%)<90) | + (60≤survival rate (%)<90) | – | – | – | – | – | –
O=C1CCC(N2C(=O)c3cccc(NC=C4C(=O)CC(c5c(Br)ccc6[nH]cc(Cl)c56)CC4=O)c3C2=O)C(=O)N1 (stereo not shown) [Compound 13] | < 3 µM | ++ (30<survival rate (%)≤60) | +++ (survival rate (%)≤30) | + (60≤survival rate (%)<90) | + (60≤survival rate (%)<90) | +++ (survival rate (%)≤30) | ++ (30<survival rate (%)≤60) | – | – | – | – | – | –
O=C1CCC(N2Cc3c(NC=C4C(=O)CC(c5c(Br)ccc6[nH]cc(Cl)c56)CC4=O)cccc3C2=O)C(=O)N1 (stereo not shown) [Compound 14] | < 3 µM | ++ (30<survival rate (%)≤60) | +++ (survival rate (%)≤30) | + (60≤survival rate (%)<90) | + (60≤survival rate (%)<90) | +++ (survival rate (%)≤30) | + (60≤survival rate (%)<90) | – | – | – | – | – | –
O=C1CCC(N2Cc3c(NC=C4C(=O)CC(c5cccc6[nH]cc(C(F)(F)F)c56)CC4=O)cccc3C2=O)C(=O)N1 (stereo not shown) [Compound 15] | < 3 µM | ++ (30<survival rate (%)≤60) | + (60≤survival rate (%)<90) | + (60≤survival rate (%)<90) | +++ (survival rate (%)≤30) | + (60≤survival rate (%)<90) | ++ (30<survival rate (%)≤60) | – | – | – | – | – | –
O=C1CCC(N2Cc3c(NC=C4C(=O)CC(c5c(Br)ccc6[nH]cc(C(F)(F)F)c56)CC4=O)cccc3C2=O)C(=O)N1 (stereo not shown) [Compound 16] | < 3 µM | + (60≤survival rate (%)<90) | + (60≤survival rate (%)<90) | + (60≤survival rate (%)<90) | +++ (survival rate (%)≤30) | + (60≤survival rate (%)<90) | + (60≤survival rate (%)<90) | – | – | – | – | – | –
O=C1CCC(N2C(=O)c3cccc(NC(=O)CNC=C4C(=O)CC(c5ccccc5)CC4=O)c3C2=O)C(=O)N1 (stereo not shown) [Compound 49] | 100 to 1000 µM | ++ (30<survival rate (%)≤60) | ++ (30<survival rate (%)≤60) | – | ++ (30<survival rate (%)≤60) | ++ (30<survival rate (%)≤60) | + (60≤survival rate (%)<90) | – | – | – | – | – | –
CC(Nc1cccc2c1C(=O)N(C1CCC(=O)NC1=O)C2=O)=C1C(=O)CC(c2ccccc2)CC1=O (stereo not shown) [Compound 76] | 100 to 1000 µM | +++ (survival rate (%)≤30) | +++ (survival rate (%)≤30) | +++ (survival rate (%)≤30) | +++ (survival rate (%)≤30) | – | ++ (30<survival rate (%)≤60) | – | – | – | – | – | –
CN1C(=O)/C(=C\Nc2cccc3c2CN(C2CCC(=O)NC2=O)C3=O)C(=O)c2ccc(C(F)(F)F)cc21 (stereo not shown) [Compound 136] | – | – | – | – | – | – | – | 3 to 15 µM | 60 to 90% | 30 to 60% | ≤ 30% | ≤ 30% | 60 to 90%
